Test results: ChEMBL document CHEMBL1201862, “PubChem BioAssay data set” (2004)
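All cell lines were grown in 96-well plates and treated with compound for 48 hours. At the GI50, growth is halved.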 Activity calls are given as the source filed them. No stated cut-off is given here; in the data, active = GI50 up to about 1.1 µM and inactive = higher.

Experiments:
Assay in all cases: NCI anticancer screen, dose series, 48 h
A498 = system: A498
A549 = system: A549
ACHN = system: ACHN
CCRF-CEM = system: CCRF-CEM
COLO 205 = system: COLO 205
DU-145 = system: DU-145
HCC 2998 = system: HCC 2998
HCT-116 = system: HCT-116
HCT-15 = system: HCT-15
HOP-92 = system: HOP-92
HT-29 = system: HT-29
Hs-578T = system: Hs-578T
KM12 = system: KM12
LOX IMVI = system: LOX IMVI
MCF7 = system: MCF7
MDA-MB-231 = system: MDA-MB-231
MDA-MB-435 = system: MDA-MB-435
MDA-N = system: MDA-N
MOLT-4 = system: MOLT-4
NCI-H226 = system: NCI-H226
NCI-H23 = system: NCI-H23
NCI-H460 = system: NCI-H460
NCI-H522 = system: NCI-H522
NCI/ADR-RES = system: NCI/ADR-RES
OVCAR-3 = system: OVCAR-3
OVCAR-4 = system: OVCAR-4
OVCAR-8 = system: OVCAR-8
PC-3 = system: PC-3
RXF 393 = system: RXF 393
SF-268 = system: SF-268
SF-295 = system: SF-295
SK-MEL-28 = system: SK-MEL-28
SK-MEL-5 = system: SK-MEL-5
SK-OV-3 = system: SK-OV-3
SN12C = system: SN12C
SNB-19 = system: SNB-19
SNB-75 = system: SNB-75
SR = system: SR
SW-620 = system: SW-620
T47D = system: T47D
TK-10 = system: TK-10
U-251 = system: U-251
UACC-257 = system: UACC-257
UO-31 = system: UO-31
786-0 = system: 786-0
CAKI-1 = system: CAKI-1
EKVX = system: EKVX
HL-60 = system: HL-60
HOP-62 = system: HOP-62
IGROV-1 = system: IGROV-1
K562 = system: K562
M14 = system: M14
Malme-3M = system: Malme-3M
OVCAR-5 = system: OVCAR-5
RPMI-8226 = system: RPMI-8226
SF-539 = system: SF-539
SK-MEL-2 = system: SK-MEL-2
UACC-62 = system: UACC-62

## CC1(CO)COC(C)(C)OC1
A498
  GI50: > 100 µM (inactive)
A549
  GI50: > 100 µM (inactive)
ACHN
  GI50: > 100 µM (inactive)
CCRF-CEM
  GI50: > 100 µM (inactive)
COLO 205
  GI50: > 100 µM (inactive)
DU-145
  GI50: > 100 µM (inactive)
HCC 2998
  GI50: > 100 µM (inactive)
HCT-116
  GI50: > 100 µM (inactive)
HCT-15
  GI50: > 100 µM
HOP-92
  GI50: > 100 µM (inactive)
HT-29
  GI50: > 100 µM (inactive)
Hs-578T
  GI50: > 100 µM (inactive)
KM12
  GI50: > 100 µM (inactive)
LOX IMVI
  GI50: > 100 µM (inactive)
MCF7
  GI50: > 100 µM (inactive)
MDA-MB-231
  GI50: > 100 µM (inactive)
MDA-MB-435
  GI50: > 100 µM (inactive)
MDA-N
  GI50: > 100 µM (inactive)
MOLT-4
  GI50: > 100 µM (inactive)
NCI-H226
  GI50: > 100 µM (inactive)
NCI-H23
  GI50: > 100 µM (inactive)
NCI-H460
  GI50: > 100 µM (inactive)
NCI-H522
  GI50: > 100 µM (inactive)
NCI/ADR-RES
  GI50: > 100 µM (inactive)
OVCAR-3
  GI50: > 100 µM (inactive)
OVCAR-4
  GI50: > 100 µM (inactive)
OVCAR-8
  GI50: > 100 µM (inactive)
PC-3
  GI50: > 100 µM (inactive)
RXF 393
  GI50: > 100 µM (inactive)
SF-268
  GI50: > 100 µM (inactive)
SF-295
  GI50: > 100 µM (inactive)
SK-MEL-28
  GI50: > 100 µM (inactive)
SK-MEL-5
  GI50: > 100 µM (inactive)
SK-OV-3
  GI50: > 100 µM (inactive)
SN12C
  GI50: > 100 µM (inactive)
SNB-19
  GI50: > 100 µM (inactive)
SNB-75
  GI50: > 100 µM (inactive)
SR
  GI50: > 100 µM (inactive)
SW-620
  GI50: > 100 µM (inactive)
T47D
  GI50: > 100 µM (inactive)
TK-10
  GI50: > 100 µM (inactive)
U-251
  GI50: > 100 µM (inactive)
UACC-257
  GI50: > 100 µM (inactive)
UO-31
  GI50: > 100 µM (inactive)

## CC(=NNC(=S)Nc1ccc(C)cc1)c1cccc(C(C)=NNC(=S)Nc2ccc(C)cc2)n1
786-0
  GI50: 5.9 µM (inactive)
A498
  GI50: 20.9 µM (inactive)
A549
  GI50: 12.9 µM (inactive)
ACHN
  GI50: 5.66 µM (inactive)
CAKI-1
  GI50: 4.75 µM (inactive)
CCRF-CEM
  GI50: 7.5 µM (inactive)
COLO 205
  GI50: 3.83 µM (inactive)
DU-145
  GI50: > 100 µM (inactive)
EKVX
  GI50: 21.5 µM (inactive)
HCC 2998
  GI50: 35.6 µM (inactive)
HCT-116
  GI50: 7.33 µM (inactive)
HCT-15
  GI50: 6.82 µM
HL-60
  GI50: 3.97 µM (inactive)
HOP-62
  GI50: 9.82 µM (inactive)
HOP-92
  GI50: 10 µM (inactive)
HT-29
  GI50: 11.9 µM (inactive)
Hs-578T
  GI50: 41.1 µM (inactive)
IGROV-1
  GI50: 12.1 µM (inactive)
K562
  GI50: 12.2 µM (inactive)
KM12
  GI50: 13.8 µM (inactive)
LOX IMVI
  GI50: 9.91 µM (inactive)
M14
  GI50: 8.89 µM (inactive)
MCF7
  GI50: > 100 µM (inactive)
MDA-MB-231
  GI50: 24.2 µM (inactive)
MDA-MB-435
  GI50: 13.6 µM (inactive)
MDA-N
  GI50: 19.9 µM (inactive)
MOLT-4
  GI50: 4.18 µM (inactive)
Malme-3M
  GI50: 2.06 µM (inactive)
NCI-H226
  GI50: 13.7 µM (inactive)
NCI-H23
  GI50: 22 µM (inactive)
NCI-H460
  GI50: 6.47 µM (inactive)
NCI-H522
  GI50: 22.3 µM (inactive)
NCI/ADR-RES
  GI50: 5 µM (inactive)
OVCAR-3
  GI50: 1.5 µM (inactive)
OVCAR-4
  GI50: 10.9 µM (inactive)
OVCAR-5
  GI50: 60.5 µM (inactive)
OVCAR-8
  GI50: 6.44 µM (inactive)
PC-3
  GI50: 17.7 µM (inactive)
RPMI-8226
  GI50: 19.2 µM (inactive)
RXF 393
  GI50: 14.4 µM (inactive)
SF-268
  GI50: > 100 µM (inactive)
SF-295
  GI50: 11 µM (inactive)
SF-539
  GI50: 7.01 µM (inactive)
SK-MEL-28
  GI50: > 100 µM (inactive)
SK-MEL-2
  GI50: 68.7 µM (inactive)
SK-MEL-5
  GI50: 6.44 µM (inactive)
SK-OV-3
  GI50: 47.3 µM (inactive)
SN12C
  GI50: 21.5 µM (inactive)
SNB-19
  GI50: 36.3 µM (inactive)
SNB-75
  GI50: 4.69 µM (inactive)
SR
  GI50: 4.02 µM (inactive)
SW-620
  GI50: 10.9 µM (inactive)
T47D
  GI50: 29.6 µM (inactive)
TK-10
  GI50: 60.1 µM (inactive)
U-251
  GI50: 31.3 µM (inactive)
UACC-257
  GI50: 13.9 µM (inactive)
UACC-62
  GI50: 7.14 µM (inactive)
UO-31
  GI50: 6.68 µM (inactive)
